Legend:
[1] = molecular target: CLR/RAMP2 receptor (Homo sapiens, UniProt O60895+Q16602); assay: CLR/RAMP2 arrestin receptor-activation assay (agonist mode); type: cell-based; settings: for receptor selectivity of agonists, in words: CLR/RAMP2 versus CLR/RAMP1; for CLR/RAMP2 Max Activity % of positive control: agonist mode, positive control ADM;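 as to all read-outs here: agonist dose-response in recombinant cell lines stably expressing each receptor complex, duplicate wells over 10 threefold dilutions from a top concentration of 1.0 µM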
CLR/RAMP2 receptor, sequence (Q16602 23-461): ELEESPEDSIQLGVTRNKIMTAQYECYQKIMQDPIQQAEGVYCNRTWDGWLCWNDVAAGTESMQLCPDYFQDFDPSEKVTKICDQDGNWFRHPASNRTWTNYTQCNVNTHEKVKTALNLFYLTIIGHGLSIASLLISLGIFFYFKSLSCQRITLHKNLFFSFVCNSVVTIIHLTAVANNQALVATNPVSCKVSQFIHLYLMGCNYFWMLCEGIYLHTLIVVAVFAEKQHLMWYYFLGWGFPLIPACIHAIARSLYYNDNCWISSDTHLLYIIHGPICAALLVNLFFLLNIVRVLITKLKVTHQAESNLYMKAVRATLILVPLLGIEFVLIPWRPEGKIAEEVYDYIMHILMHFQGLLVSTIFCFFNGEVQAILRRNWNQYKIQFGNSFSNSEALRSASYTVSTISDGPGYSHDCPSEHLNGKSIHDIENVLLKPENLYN
CLR/RAMP2 receptor, sequence (O60895 43-175): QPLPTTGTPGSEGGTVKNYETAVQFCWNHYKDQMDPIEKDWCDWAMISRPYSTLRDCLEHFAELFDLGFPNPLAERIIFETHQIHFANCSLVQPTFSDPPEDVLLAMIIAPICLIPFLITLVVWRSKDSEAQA
Method: (§1) Using a receptor activation assay, the dose-dependent stimulatory response of peptide agonists on a CLR/RAMP1 receptor, a CLR/RAMP2, or a CLR/RAMP3 receptor complex was determined. A cell line carrying the recombinant CLR/RAMP1, CLR/RAMP2, or a CLR/RAMP3 receptor was employed in the assay. Peptide agonist activities were tested, in duplicate, at 10 different concentrations, starting with 1.0 μM and serially diluted 3-fold, in DMSO. […] The CLR/RAMP1 CAMP, CLR/RAMP2 arrestin, and CLR/RAMP3 CAMP assays (DiscoveRx, Fremont, Calif.) were used.
(§2) The pharmacology of superagonistic activity of synthetic analogs was studied in cells that stably express CLR/RAMP1 (1321N1 cells), CLR/RAMP2 (CHO-K1 cells), or CLR/RAMP3 (CHO-K1 cells) receptors.
For the Arrestin assays, PathHunter cell lines (Discoverx Inc.) were expanded from freezer stocks, and seeded in a total volume of 20 μL into white walled, 384-well microplates and incubated at 37 C for the appropriate time prior to testing. For agonist determination, cells were incubated with sample to induce response. […] The microplates were read following signal generation with a PerkinElmer Envision™ instrument for chemiluminescent signal detection.
The compound activity was analyzed using a CBIS data analysis suite (ChemInnovation, CA). For agonist mode assays, percentage activity was calculated using the following formula:
% Activity=100%×(mean RLU of test sample−mean RLU of vehicle control)/(mean MAX control ligand−mean RLU of vehicle control).

[2] = molecular target: CLR/RAMP1 receptor (Homo sapiens, UniProt O60894+Q16602); assay: CLR/RAMP1 cAMP receptor-activation assay (agonist mode); type: cell-based; settings: for CLR/RAMP1 Max Activity % of positive control: agonist mode, positive control β-CGRP;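 as to all read-outs here: Dose–response over 10 threefold dilutions from 1.0 µM, run in duplicate, luminescent cAMP detection (RLU), activity scaled between vehicle control (0%) and maximal control (100%)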
CLR/RAMP1 receptor, sequence (Q16602 23-461): as the sequence (Q16602 23-461) above
CLR/RAMP1 receptor, sequence (O60894 27-148): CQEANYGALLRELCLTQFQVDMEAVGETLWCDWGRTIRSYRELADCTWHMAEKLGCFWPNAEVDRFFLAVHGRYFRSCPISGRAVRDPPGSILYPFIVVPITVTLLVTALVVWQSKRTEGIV
Method: as §1, §2
For the analysis of Gs-coupled CAMP production, cAMP Hunter cell lines were expanded from freezer stocks, and cells were seeded in a total volume of 20 μL into white walled, 384-well microplates and incubated at 37 C for the appropriate time prior to testing. The CAMP modulation was determined using the DiscoverX HitHunter CAMP XS+ assay. For agonistic activity determination, cells were incubated with sample to induce response. Media was aspirated from cells and replaced with 15 μL 2:1 HBSS/10 mM Hepes: CAMP XS+Ab reagent. […] For Gs-coupled agonistic assays, percentage activity is calculated using the following formula: % Activity=100%×(mean RLU of test sample−mean RLU of vehicle control)/(mean RLU of MAX control−mean RLU of vehicle control).

| Compound | receptor selectivity of agonists, in words [1] | CLR/RAMP2 Max Activity % of positive control [1] | CLR/RAMP1 Max Activity % of positive control [2] | agonistic potency for CLR/RAMP1 and/or CLR/RAMP2 receptors, in words ([2]; CLR/RAMP1 and/or CLR/RAMP2) |
| --- | --- | --- | --- | --- |
| miniPEG-K(PAL)GCRFGTCTVQKLAHQIYQFTDKDKDNVDPSSPHSY-NH2 [SEQ ID NO: 94] | CLR/RAMP2-selective | 82 % of positive control | 67 % of positive control | – |
| CSCC[C@H](NC(=O)CNC(=O)CNC(=O)[C@H](CO)NC(=O)[C@H](CCCNC(=N)N)NC(=O)[C@H](CO)NC(=O)[C@H](CC(C)C)NC(=O)[C@H](CC(C)C)NC(=O)CNC(=O)[C@H](C)NC(=O)[C@H](CC(C)C)NC(=O)[C@H](CCCNC(=N)N)NC(=O)[C@H](Cc1c[nH]cn1)NC(=O)[C@@H](NC(=O)[C@@H](NC(=O)[C@@H]1CSSC[C@H](NC(=O)[C@H](C)N)C(=O)N[C@@H](CC(N)=O)C(=O)N[C@@H]([C@@H](C)O)C(=O)N[C@@H](C)C(=O)N[C@@H]([C@@H](C)O)C(=O)N1)C(C)C)[C@@H](C)O)C(=O)N[C@H](C(=O)N[C@@H](CCCCN)C(=O)N[C@@H](CO)C(=O)N[C@@H](CC(N)=O)C(=O)N[C@@H](Cc1ccccc1)C(=O)N[C@H](C(=O)N1CCC[C@H]1C(=O)N[C@H](C(=O)N[C@@H](CC(N)=O)C(=O)N[C@H](C(=O)NCC(=O)N[C@@H](CO)C(=O)N[C@@H](CCCCN)C(=O)N[C@@H](C)C(=O)N[C@@H](Cc1ccccc1)C(N)=O)C(C)C)[C@@H](C)O)C(C)C)C(C)C [SEQ ID NO: 143, reference compound] | – | – | 103 % of positive control | – |
| miniPEG-K(PAL)GCRFGTCTVQKLAHQIYQFTDKGRQDSAPVDPSSPHSY-NH2 [SEQ ID NO: 68] | – | 70 % of positive control | – | – |
| miniPEG-K(PAL)GCRFGTCTVQKLAHQIYQFTDKDKQDSAPVDPSSPHSY-NH2 [SEQ ID NO: 51] | – | 107 % of positive control | 65 % of positive control | – |
| Ace-PEG3-K([19-carboxy-nonadecanoyl]-isoGlu)GCRFGTCTVQKLAHQIYQFTDKDKDNVAPRSKISPQGY-NH2 [SEQ ID NO: 155] | – | 95 % of positive control | 81 % of positive control | – |
| Ace-FGCRFGTCTVQKLAHQIYQFTDKDKDNVAPRSKISPQGY-NH2 [SEQ ID NO: 53, reference compound] | – | 102 % of positive control | 69 % of positive control | low potency ligands |
| Ace-PEG3-K([19-carboxy-nonadecanoyl]-isoGlu-PEG3)GCRFGTCTVQKLAHQIYQFTDKDVAPRSKISPQGY-NH2 [SEQ ID NO: 159] | – | 60 % of positive control | 90 % of positive control | – |
| miniPEG-K(PAL)GCRFGTCT(D-Val)QKLAHQIYQFTDKDVAPRSKISPQGY-NH2 [SEQ ID NO: 211] | CLR/RAMP2-selective | 22 % of positive control | 91 % of positive control | – |
| Ace-PEG3-K(Hexadecanoyl-isoGlu-PEG3-PEG3)GCRFGTCTVQKLAHQIYQFTDKDKDNVAPRSKISPQGY-NH2 [SEQ ID NO: 153] | – | 108 % of positive control | 78 % of positive control | – |
| Ace-PEG3-K(Hexadecanoyl-PEG3-isoGlu)GCRFGTCTVQKLAHQIYQFTDKDKDNVAPRSKISPQGY-NH2 [SEQ ID NO: 154] | – | 112 % of positive control | 83 % of positive control | – |
| miniPEG-K(PAL)GCRFGTCTVQKLAHQIYQFTDKDVAPRSKISP(D-Gln)GY-NH2 [SEQ ID NO: 214] | CLR/RAMP2-selective | 99 % of positive control | 112 % of positive control | – |
| Human β-CGRP [Wild type CGRP-β positive, reference compound] | – | – | 100 % of positive control | – |

Source: patent US20250154219A1, “PEPTIDE ANALOGS” (Adepthera LLC, priority 2017, published 2025)
